What was measured:
Test in all cases: relative viability (nuclei count vs DMSO), 5 days (fraction); higher = more cells survive
[1] = compound: COc1cc2nc(N3CCCN(C)CC3)nc(NC3CCN(Cc4ccccc4)CC3)c2cc1OC + CC(C)C[C@H](NC(=O)[C@H](Cc1ccccc1)NC(=O)c1cnccn1)B(O)O [Bortezomib] (partner 0.002 µM)
Outline: (§1)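 Lung cancer cell lines were seeded in 1536-well plates and dosed by pin tool the next day, with either a single drug or a fixed anchor-drug dose combined with five library-drug doses (not always all listed) spaced in √10 steps. Five days later, one step fixed the cells and stained their nuclei (final 0.05% Triton X-100, 1% formaldehyde, 1 ug/ml Hoechst), and nuclei were counted on 4× images. Relative viability is the nuclei count in treated wells divided by the count in vehicle wells, and each value is the median of duplicate plates.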

[2] = compound: COc1cc2nc(N3CCCN(C)CC3)nc(NC3CCN(Cc4ccccc4)CC3)c2cc1OC + C[C@]1(O)C[C@@H](c2nc(-c3ccc4ccc(-c5ccccc5)nc4c3)c3c(N)nccn32)C1 [Linsitinib] (partner 1 µM)
Outline: as §1

[3] = compound: Cc1cc([C@@H](C)Nc2ccccc2C(=O)O)c2nc(N3CCOCC3)cc(=O)n2c1 [AZD6482] + Cc1nc(Nc2ncc(C(=O)Nc3c(C)cccc3Cl)s2)cc(N2CCN(CCO)CC2)n1 [Dasatinib] (partner 0.075 µM)
Outline: as §1

[4] = compound: Cc1cc([C@@H](C)Nc2ccccc2C(=O)O)c2nc(N3CCOCC3)cc(=O)n2c1 [AZD6482] + CC(=O)c1c(C)c2cnc(Nc3ccc(N4CCNCC4)cn3)nc2n(C2CCCC2)c1=O [Palbociclib] (partner 0.5 µM)
Outline: as §1

Row | Cell Line | relative viability ([1]; first compound 0.2 µM) | relative viability ([1]; first compound 0.6325 µM) | relative viability ([1]; first compound 2 µM) | relative viability ([1]; first compound 6.325 µM) | relative viability ([2]; first compound 0.2 µM) | relative viability ([2]; first compound 0.6325 µM) | relative viability ([2]; first compound 2 µM) | relative viability ([2]; first compound 6.325 µM) | relative viability ([3]; first compound 0.08 µM) | relative viability ([3]; first compound 0.253 µM) | relative viability ([3]; first compound 0.8 µM) | relative viability ([3]; first compound 2.53 µM) | relative viability ([3]; first compound 8 µM) | relative viability ([4]; first compound 0.08 µM) | relative viability ([4]; first compound 0.253 µM) | relative viability ([4]; first compound 0.8 µM) | relative viability ([4]; first compound 2.53 µM) | relative viability ([4]; first compound 8 µM)
1 | HCC-827 | 0.99 | 1.13 | 0.786 | 1.06 | 1 | 0.969 | 0.967 | 0.941 | 0.255 | 0.2 | 0.197 | 0.161 | 0.214 | 0.437 | 0.504 | 0.435 | 0.378 | 0.229
2 | HOP-62 | 0.623 | 0.869 | 0.855 | 0.469 | 0.878 | 0.992 | 1.03 | 0.7 | 0.428 | 0.528 | 0.572 | 0.299 | 0.349 | 0.504 | 0.525 | 0.486 | 0.457 | 0.407
3 | IA-LM | 0.705 | 0.764 | 1.04 | 0.737 | 0.724 | 0.5 | 0.661 | 0.458 | – | – | – | – | – | – | – | – | – | –
4 | LC-2-ad | 1.03 | 1.01 | 1.16 | 1.04 | 0.889 | 0.818 | 0.891 | 0.833 | 0.431 | 0.357 | 0.537 | 0.306 | 0.282 | 0.478 | 0.539 | 0.537 | 0.521 | 0.399
5 | LCLC-97TM1 | 0.439 | 0.939 | 0.697 | 0.517 | 0.176 | – | 0.159 | 0.195 | 0.87 | 0.711 | 0.869 | 0.611 | 0.486 | 0.167 | 0.225 | 0.188 | – | 0.172
6 | LCLC-103H | 1.18 | 1.09 | 1.31 | 1.01 | 1.1 | 1.13 | 1.28 | 1.04 | 0.361 | 0.359 | 0.224 | 0.251 | 0.225 | 0.48 | 0.475 | 0.47 | 0.265 | 0.353
7 | LK-2 | – | – | – | – | 0.472 | 0.539 | 0.624 | 0.644 | 0.349 | 0.286 | 0.327 | 0.26 | 0.221 | 0.732 | 0.698 | 0.688 | 0.54 | 0.342
8 | LOU-NH91 | 0.481 | 0.552 | 0.465 | 0.517 | 0.93 | 0.978 | 0.669 | 0.979 | 0.394 | 0.486 | 0.577 | 0.406 | 0.376 | 0.537 | 0.557 | 0.552 | 0.49 | 0.542
9 | LU99A | 1.26 | 1.08 | 1.22 | 1.01 | 0.628 | 0.537 | 0.552 | 0.549 | 0.562 | 0.522 | 0.397 | 0.389 | 0.407 | 0.373 | 0.368 | 0.397 | 0.353 | 0.311
10 | NCI-H358 | – | – | – | – | 0.837 | 0.66 | 0.741 | 0.52 | 0.151 | 0.186 | 0.132 | 0.0881 | 0.153 | 0.149 | 0.121 | 0.134 | 0.127 | 0.115

From the supplement of paper PMC10307832
